Measurements reported in patent US10167262B2, “Herbicidal substituted 3-arylpyrazoles” (FMC CORPORATION, priority 2014, dated 2019).

Tests used:
Experiment in all cases: Test A pre-/postemergence greenhouse herbicide test, visual injury rating 0-100
Type in all cases: in vivo
Settings in all cases: 1000 g ai/ha
[1] = test system: barnyardgrass (Echinochloa crus-galli)
Excerpt: (§1) Seeds of plant species selected from barnyardgrass (Echinochloa crus-galli), large (Lg) crabgrass (Digitaria sanguinalis), giant foxtail (Setaria faberii), morningglory (Ipomoea spp.), pigweed (Amaranthus retroflexus), velvetleaf (Abutilon theophrasti), wheat (Triticum aestivum), and corn (Zea mays) were planted into a blend of loam soil and sand and treated preemergence with a directed soil spray using test chemicals formulated in a non-phytotoxic solvent mixture which included a surfactant. At the same time these species were also treated with postemergence applications of test chemicals formulated in the same manner. Plants ranged in height from 2 to 10 cm and were in the one- to two-leaf stage for the postemergence treatment. Treated plants and untreated controls were maintained in a greenhouse for approximately 10 days, after which time all treated plants were compared to untreated controls and visually evaluated for injury. Plant response ratings, summarized in Table A, are based on a 0 to 100 scale where 0 is no effect and 100 is complete control. A dash (-) response means no test result.

[2] = test system: morningglory (Ipomoea spp.)
Excerpt: as §1

[3] = test system: velvetleaf (Abutilon theophrasti)
Excerpt: as §1

[4] = test system: wheat (Triticum aestivum)
Excerpt: as §1

[5] = test system: pigweed (Amaranthus retroflexus)
Excerpt: as §1

[6] = test system: giant foxtail (Setaria faberii)
Excerpt: as §1

corn (Zea mays) = test system: corn (Zea mays)
Excerpt: as §1

[7] = test system: large (Lg) crabgrass (Digitaria sanguinalis)
Excerpt: as §1

| Structure (SMILES) | Plant response rating (0 to 100 scale), Barnyardgrass ([1]; Postemergence) | Plant response rating (0 to 100 scale), Barnyardgrass ([1]; Preemergence) | Plant response rating (0 to 100 scale), Morningglory ([2]; Postemergence) | Plant response rating (0 to 100 scale), Morningglory ([2]; Preemergence) | Plant response rating (0 to 100 scale), Velvetleaf ([3]; Postemergence) | Plant response rating (0 to 100 scale), Velvetleaf ([3]; Preemergence) | Plant response rating (0 to 100 scale), Wheat ([4]; Postemergence) | Plant response rating (0 to 100 scale), Wheat ([4]; Preemergence) | Plant response rating (0 to 100 scale), Pigweed ([5]; Postemergence) | Plant response rating (0 to 100 scale), Pigweed ([5]; Preemergence) | Plant response rating (0 to 100 scale), Foxtail, Giant ([6]; Postemergence) | Plant response rating (0 to 100 scale), Foxtail, Giant ([6]; Preemergence) | Plant response rating (0 to 100 scale), Corn (corn (Zea mays); Postemergence) | Plant response rating (0 to 100 scale), Corn (corn (Zea mays); Preemergence) | Plant response rating (0 to 100 scale), Crabgrass, Large ([7]; Postemergence) | Plant response rating (0 to 100 scale), Crabgrass, Large ([7]; Preemergence) |
| --- | --- | --- | --- | --- | --- | --- | --- | --- | --- | --- | --- | --- | --- | --- | --- | --- |
| Clc1cc(Cl)cc(-c2n[nH]cc2C(=NNc2ccccc2)c2ccccc2)c1 [Compound 33] | 0 | 0 | 0 | 0 | 100 | 80 | 0 | 0 | 100 | 100 | 0 | 0 | 0 | 0 | 0 | 0 |
| CON=C(c1ccccc1)c1c[nH]nc1-c1cc(Br)cc(Br)c1 [Compound 29] | 0 | 0 | 0 | 0 | 90 | 70 | 0 | 0 | 90 | 40 | 10 | 0 | 0 | 0 | 0 | 0 |
| N#CN=C(c1ccccc1)c1c[nH]nc1-c1cc(Cl)cc(Cl)c1 [Compound 52] | 0 | 0 | 0 | 0 | 100 | 60 | 0 | 0 | 90 | 50 | 0 | 0 | 0 | 0 | 0 | 0 |
| O=C(c1ccccc1)c1cn(CC(F)F)nc1-c1cc(F)cc(Cl)c1 [Compound 40] | 0 | 0 | 0 | 0 | 0 | 0 | 0 | 0 | 40 | 0 | 0 | 0 | 0 | 0 | 0 | 0 |
| Clc1cc(Cl)cc(-c2n[nH]cc2C(=NN2CCCCC2)c2ccccc2)c1 [Compound 51] | 0 | 0 | 0 | 0 | 90 | 90 | 0 | 0 | 90 | 100 | 0 | 0 | 0 | 0 | 0 | 0 |
